Test system: murine melanoma cell B16-F1 xenograft
Experiment: Therapeutic effect on B16-F1 xenograft C57 mice
Type: in vivo
Experimental: Evaluation of the inhibition effect of the compound of Example 1 on the growth of murine melanoma cell B16-F1 xenograft on C57 mice.
Compound 1 was formulated into a 5 mg/ml aqueous solution using 0.5% CMC-Na+0.25% (v/v) Polysorbate 80. The administration concentration was 50 mg/kg, and the oral volume for intragastrical administration was 10 ml/kg.
Female C57BL/6J mice for laboratory use were purchased from SINO-BRITISH SIPPR/BK LAB. ANIMAL LTD., CO (Shanghai, China, Certificate No.: SCXK (Shanghai) 2008-0016), and the body weight of mice was from 16 to 20 g when purchased. After the animals were purchased, the test was started after 3 days of adaptive feeding. Feeding conditions: SPF grade. Animal feeding method: 12/12 hours light/dark cycle, temperature 23±1° C., humidity 40-50%, the animals were fed with standard sterilized murine feed, and had free access to food and water.
The C57 mice after adaptive feeding were fasted overnight in a metabolic cage, and divided randomly into the following groups after weighing: blank control group and Compound 1 group, 10 mice per group. The skin preparation on the right flank of C57 mice was carried out one day in advance, B16-F1 cells were subcutaneously inoculated ([…] cells per mouse), and administration was started on the third day after inoculation. Each mouse was intragastrically administrated with Compound 1 (i.g., 10 ml/kg) twice a day, and the blank group was intragastrically administrated with the corresponding solvent. The tumor volume was measured twice a week, the body weight was weighed and the data were recorded.
Excel statistical software was used: the average value was calculated by avg; the SD value was calculated by STDEV; the SEM value was calculated as STDEV/SQRT: the difference between the groups P value was calculated by TTEST.
The calculation formula of tumor volume (V) is: V=½×Llength×Lshort^2
Tumor inhibition rate (%)==(C−T)/C (%)
Wherein V0 and VT are the tumor volumes at the beginning of the test and at the end of the test, respectively. C and T are the average tumor volumes of the Blank group and the test group at the end of the test, respectively.

For `Cc1cccc(-c2nn(C3CCC3)cc2-c2ccnc(-c3ccc(S(C)(=O)=O)cc3)c2)n1` [Example 1, 4-(1-Cyclobutyl-3-(6-methylpyridin-2-yl)-1H-pyrazol-4-yl)-2-(4-(methylsulfonyl)phenyl)pyridine], the “Effect on the body weight of the mice” value (50 mg/kg i.g. twice a day) was “no effect”, the “Tumor volume compared with the blank control group” value (Day 19, 50 mg/kg i.g. twice a day) was “significantly smaller” and the “Average tumor volume d0” value (d0, 50 mg/kg po bid/20d) was 0.00 mm^3. The “Average tumor volume d22” value (d22, 50 mg/kg po bid/20d) was 301.53 mm^3.
